Details: rat; liver microsomes; pH 7.4; 15.0 min; 1.0 µM

| Compound | half-life [min] |
| --- | --- |
| CC(C)(C)OC(=O)NC1CCN(c2nc(-c3ccc(Br)cc3)cs2)CC1 | > 30 |
| CCCCCn1c(=O)[nH]c2cc(C(=O)NCCCN3CCCCC3)ccc2c1=O | > 30 |
| COc1ccc(Nc2cc(C)nc(-n3nc(C)cc3C)n2)cc1Cl | 17.7 |
| Nc1ncnc2c1ncn2[C@H]1O[C@@H](CO)[C@@H](O)[C@H]1N | > 30 |
| COc1ccc2c(ccn2CCC(=O)Nc2ccc3c(c2)C(=O)N2CCC[C@H]2C(=O)N3)c1 | 9.22 |
| COc1ccc(-c2ccc3c(N4CCOC[C@@H]4C)nc(N4CCOC[C@@H]4C)nc3n2)cc1CO | > 30 |
| COc1cccc(CN2CCCC(c3nc(-c4ccncc4)ncc3-c3ccccc3)C2)c1O (stereo not drawn) | 5.95 |
| CC(=O)Nc1ccc(NC(=O)C(NS(=O)(=O)c2ccc(Br)s2)c2ccccc2)cc1 (stereo not drawn) | 8.13 |
| COc1ccc(-c2csc(N3CCC(C(N)=O)CC3)n2)cc1OC | > 30 |
| O=S(=O)(Nc1nccs1)c1ccc(NCc2cc(F)ccc2O)cc1 | 12 |
| CC[C@@]1(O)C(=O)OCc2c1cc1n(c2=O)Cc2cc3ccccc3nc2-1 | > 30 |
| Cc1cc(Nc2nc(-c3ccncc3)nc3ccccc23)n[nH]1 | 7.3 |
| O=C(Nc1ccc(S(=O)(=O)N2CCN(Cc3ccccc3)CC2)cc1)c1cnccn1 | 1.8 |
| CCNC(=O)c1noc(-c2cc(C(C)C)c(O)cc2O)c1-c1ccc(CN2CCOCC2)cc1 | 4.7 |
| Cc1nnn(C)c1-c1cnc2c3ccc(C(C)(C)O)cc3n([C@H](c3ccccc3)C3CCOCC3)c2c1 | > 30 |
| N#Cc1ccccc1S(=O)(=O)Nc1cnccc1C(=O)Nc1nc(-c2ccccc2)cs1 | 7 |
| O=c1[nH]c(C2CCN(S(=O)(=O)c3ccc4c(c3)OCCO4)CC2)nc2c1nnn2Cc1c(F)cccc1Cl | 1.4 |
| CCCCN(CC)CCNC(=O)c1cc2c(-c3ccc(Cl)cc3)nn(C)c2s1 | 3.76 |
| Cc1ccc(-c2cc(C(=O)Nc3ccc(-n4cncn4)cc3)c3ccccc3n2)cc1C | 23 |
| CCOc1ccccc1C(=O)NC1CCN(c2cc(C)cc(C)c2)C1=O (stereo not drawn) | 8.98 |

| Compound | half-life [min] |
| --- | --- |
| COc1ccc(NC(C)=O)cc1S(=O)(=O)Nc1ccc(Br)cc1 | > 30 |
| CC(C)Oc1cccc(-c2cnc(N3CCC(C(N)=O)CC3)s2)c1 | 23 |
| O=C(NCc1ccncc1)c1nc(-c2cccnc2)c2cnccn12 | > 30 |
| O=C(Nc1ccc(S(=O)(=O)Nc2nccs2)cc1)c1cccnc1 | > 30 |
| Cc1ccc(-c2cc(C(=O)O)c3ccccc3n2)cc1 | 22.4 |
| O=C(Nc1ccc(Nc2ccncc2)cc1)c1ccc(Nc2ccnc3ccc([N+](=O)[O-])cc23)cc1[N+](=O)[O-] | > 30 |
| NC(=O)C1CCN(c2nc(-c3cccc(C(F)(F)F)c3)cs2)CC1 | 1.99 |
| CC(C)CCNC(=O)[C@H](CC(C)C)NC(=O)[C@H]1O[C@@H]1C(=O)O | > 30 |
| CC(C)c1ccccc1-c1ncc(F)c(NC2(c3ccc(-c4cccnc4)cc3)CC2)n1 | 8.9 |
| Cc1cc(N)c2cc(NC(=O)Nc3ccc4nc(C)cc(N)c4c3)ccc2n1 | > 30 |
| O=C(Nc1ccc([S+](=O)([O-])Nc2nccs2)cc1)c1ccccn1 | 2.4 |
| CC(=O)c1cccc(-c2csc3ncnc(Sc4nnnn4C)c23)c1 | 3.08 |
| CCOc1ccc(CCNC(=O)c2cc3ccccc3n2Cc2cc(C)cc(C)n2)cc1OCC | 1.7 |
| Cc1ccccc1C(=O)N1CCC(C(=O)N2CCC(N3Cc4ccccc4C3=O)CC2)CC1 | 11.8 |
| CCCNC(=O)c1ccc2c(c1)N=C(C)c1c(C)ccc(C)c1S2 | 1.34 |
| CCOc1cc2ncc(C#N)c(Nc3ccc(OCc4ccccn4)c(Cl)c3)c2cc1NC(=O)C=CCN(C)C | > 30 |
| COc1ccc2[nH]c3c(c2c1)CCNC31CCN(S(=O)(=O)c2c(C)noc2C)CC1 | > 30 |
| OC(CCN1CCCCC1)c1ccc(-c2ccccc2)cc1 (stereo not drawn) | 4.73 |
| Cc1ccc(C)c(NC2=C(c3ccc(C(F)(F)F)cc3)C(=O)c3ccccc32)c1 | 9.11 |
| COc1ccc(OC)c(-c2nnc3ccc(-c4ccc(OC)c(O[C@@H]5CCOC5)c4)nn23)c1 | 5.5 |

Now from value to compound:

| half-life [min] | Compound |
| --- | --- |
| 8.55 | Cc1cc(S(=O)(=O)Nc2cnccc2C(=O)Nc2nc(-c3ccccc3)cs2)c(C)o1 |
| 2.1 | Cc1ccc(S(=O)(=O)NCC(=O)Nc2nc(-c3ccccc3)cs2)cc1 |
| 14 | Cc1ccc(S(=O)(=O)Nc2ncccc2C(=O)Nc2nc(-c3ccccc3)cs2)cc1 |
| 1.36 | CCOC(=O)C1CCN(C(=O)C(C)(C)NC(=O)Nc2ccc(Cl)cc2Cl)CC1 |
| > 30 | N#Cc1ccc(S(=O)(=O)Nc2cnccc2C(=O)Nc2nc(-c3ccccc3)cs2)cc1 |
| 1.6 | CCOc1ccc(CCNC(=O)c2cc3sccc3n2Cc2ccncc2)cc1OCC |
| 13.7 | CCc1oc2ccccc2c1C(=O)c1cc(I)c(O)c(I)c1 |
| 14 | Cc1ccc(S(=O)(=O)Nc2cnccc2C(=O)Nc2ccc(-c3nc4ccccc4[nH]3)cc2)cc1 |
| > 30 | O=C(Nc1ccc(C(=O)N2CCCC2)cc1)c1ccccc1F |
| > 30 | CC(=O)c1c(C)[nH]c(C(=O)Nc2ccc(Cl)cc2)c1C |
| 8.3 | O=C(Cc1ccc(Cl)c(Cl)c1)Nc1ccc([S+](=O)([O-])Nc2ccccn2)cc1 |
| > 30 | CC(=O)c1c(C)[nH]c(C(=O)N(C)C)c1C |
| 5.7 | O=C(Nc1nc(-c2ccccc2)cs1)c1ccncc1NS(=O)(=O)c1c(F)cc(F)cc1F |
| 3 | COc1ccc(NC(=O)c2[nH]c(C)c(C(C)=O)c2C)cc1S(=O)(=O)N1CCCCCC1 |
| 2.1 | Cc1ccc(-n2nc3c(N4CCCC(C(=O)NCc5ccccc5C)C4)nnc(C)c3c2C)cc1 (stereo not drawn) |
| 1.7 | Cc1noc(C)c1C(=O)N1CCC2(CCCN(C(c3ccccc3)c3ccccc3)C2)CC1 |
| > 30 | O=c1[nH]c(N2CCOCC2)nc2c1CCN(Cc1cc(Cl)ccc1F)CC2 |

| half-life [min] | Compound |
| --- | --- |
| 13 | COc1ccc(C(=O)Nc2nc(-c3ccccc3)cs2)cc1NS(=O)(=O)c1ccc(C)cc1 |
| 7.7 | CNc1nccc(-c2cccc3ccccc23)n1 |
| 1.8 | COc1ccc(C2Nc3ccccc3C(=O)N2Cc2cccnc2)cc1COc1c(C)cc(NC(C)=O)cc1C (stereo not drawn) |
| 5.25 | Cc1noc(C)c1CN1CCNc2cc(Nc3ccccc3)ncc2C1 |
| > 30 | Cc1cc(N=Nc2ccc(S(=O)(=O)Nc3ccccn3)cc2)c(N)cc1O |
| 7.7 | Cc1cnc(-c2ccccc2C(C)C)nc1NCC1CCN(C2COC2)CC1 |
| > 30 | O=C(Nc1ncc(Cc2ccc(C(F)(F)F)cc2)s1)c1cnc(-c2ccccc2)[nH]1 |
| > 30 | Cc1cnc(-c2ccccc2C2COC2)nc1NCc1ccc(-n2ccnn2)cc1 |
| 13 | COc1cc(NS(=O)(=O)c2ccc(C)cc2)cc(C(=O)Nc2nc(-c3ccccc3)cs2)c1 |
| 15 | Cc1cc(-c2nnc3n2CCCCC3)c(C)n1-c1cccnc1 |
| > 30 | COc1cccc(C(=O)Nc2ccc([S+](=O)([O-])Nc3nccs3)cc2)c1O |
| 3.7 | COc1cccc(NS(=O)(=O)c2ccc(C)cc2)c1C(=O)Nc1nc(-c2ccccc2)cs1 |
| 4.1 | Oc1ccc(CNc2cccc(F)c2)c2cccnc12 |
| 28.2 | CC(C)c1cc(C(C)C)c(CC(=O)NS(=O)(=O)Oc2c(C(C)C)cccc2C(C)C)c(C(C)C)c1 |
| 2.9 | COc1ccnc(NC(=S)N2CCN(c3ccccc3C(F)(F)F)CC2)c1 |
| 8.96 | Cc1cccc2c(C(=O)O)cc(-c3cccs3)nc12 |

From PubChem BioAssay AID1508591
